Measurements from patent publication US20180153826A1, “MATERIALS AND METHODS FOR THE TREATMENT OF CYSTIC FIBROSIS” (UNIVERSITY OF FLORIDA RESEARCH FOUNDATION, INC., priority 2015, published 2018).

Key:
[1] = system: colon mucosa of CaSR null mice; assay: HCO3^− secretion in colon mucosa of CaSR null (CaSR^−/−) mice; design: species or system mouse
Description: FIGS. 13A-13F. […] Colonic mucosa from wild type (CaSR^+/+) (A-C) and knockout (CaSR^-/-) mice (D-F) were isolated and treated, and activities of the three HCO3^- transporters assayed as in rats. Data are means±SEM of 4-6 experiments. *p<0.05 vs. control (1st bar). Experiments were performed using non-fasting male Sprague-Dawley rats and C57BL/6 mice. Rats weighting 100-400 g were obtained from Charles River Laboratories. Mice lacking CaSR expression in intestinal epithelial cells (CaSR^-/-) and their CaSR^+/+ littermates were bred and maintained. CaSR^-/- mice were generated as previously described. Briefly, CaSR flox/flox mice were bred with transgenic mice expressing Cre Recombinase under the control of the villin 1 promoter and genotyped prior to all experiments after an approximate 10-12 generations. Mice were used at 5-10 weeks of age. Animals were fed and maintained on regular chow (Harlan) with free access to water before sacrifice. Animals were sacrificed with standard CO2 inhalation followed by cervical dislocation. The colons were isolated, cut open along the mesenteric border into a flat sheet, and flushed with ice-cold Ringer solutions. Mucosa from the distal colon were carefully hand-stripped off of serosal, muscular and submucosal layers as described and a pair of adjacent mucosal segments were incised and mounted into Ussing chambers. […]

[2] = system: HCO3^− secretion by colonic mucosa; assay: Secretagogue (forskolin)-induced HCO3^− secretion, lumen Cl^−-containing Ringer; design: species or system rat; settings: 10 μM serosa, added after forskolin 500 nM
Description: (§1) Stripped mucosal sheets were mounted into Ussing chambers (window area=0.3-0.5 cm^2, Physiologic Instruments, San Diego, Calif.). The mucosal side of tissue was bathed with an unbuffered HCO3^−-free Cl^− Ringer solution (see Table 2 for detailed composition) circulated by a gas lift with 100% O2 while the serosal side was bathed with buffered Cl^− Ringer solution (pH 7.4) that contained 25 mM HCO3^− and gassed with 5% CO2/95% O2. Each side contained 3-5 ml of solution and the temperature of the solution was adjusted to and maintained at 37° C. by heated water-jacketed reservoirs. […]
(§2) Two types of approaches were used in the measurement of colonic HCO3^− secretion, namely, measurement of lumen pH or pH stat titration of net alkalinization by colonic mucosa. […] The amount of the acid delivered per unit time per surface area was used to quantitate HCO3^− secretion by the mucosa. Measurements were recorded continuously and mean values for consecutive 5 or 10 min periods were averaged. The rate of HCO3^− secretion (JHCO3) is expressed as μEq/hr/cm^2. The short-circuit current (Isc) was measured in microamperes (μA) and converted into μEq/hr/cm^2. Tissue resistance (R, Ω cm^2) was calculated from Ohm's law. […]

[3] = system: colon mucosa of wild type mice; assay: HCO3^− secretion in colon mucosa of wild type (CaSR^+/+) mice; design: species or system mouse
Description: FIGS. 13A-13F. […] Colonic mucosa from wild type (CaSR^+/+) (A-C) and knockout (CaSR^-/-) mice (D-F) were isolated and treated, and activities of the three HCO3^- transporters assayed as in rats. Data are means±SEM of 4-6 experiments. *p<0.05 vs. control (1st bar). Experiments were performed using non-fasting male Sprague-Dawley rats and C57BL/6 mice. Rats weighting 100-400 g were obtained from Charles River Laboratories. Mice lacking CaSR expression in intestinal epithelial cells (CaSR^-/-) and their CaSR^+/+ littermates were bred and maintained. CaSR^-/- mice were generated as previously described. Briefly, CaSR flox/flox mice were bred with transgenic mice expressing Cre Recombinase under the control of the villin 1 promoter and genotyped prior to all experiments after an approximate 10-12 generations. Mice were used at 5-10 weeks of age. Animals were fed and maintained on regular chow (Harlan) with free access to water before sacrifice. Animals were sacrificed with standard CO2 inhalation followed by cervical dislocation. The colons were isolated, cut open along the mesenteric border into a flat sheet, and flushed with ice-cold Ringer solutions. Mucosa from the distal colon were carefully hand-stripped off of serosal, muscular and submucosal layers as described and a pair of adjacent mucosal segments were incised and mounted into Ussing chambers. In some experiments, stripped mucosa was incised longitudinally into two equal pieces in order to facilitate comparisons between control and treatment. […] To verify that the effects of […] occurred via the CaSR, additional studies on the effect of […] were performed in intestinal epithelium-specific CaSR knockout mice (FIG. 13). Intestinal epithelium-specific CaSR knockout mice were used together with their wild type littermates.

Cl^−/HCO3^− exchange = Cl^−/HCO3^− exchange activity (Cl^−-dependent HCO3^− secretion); design: species or system rat; settings: 10 μM, added to serosal side
Description: as §1, §2

[4] = system: HCO3^− secretion by colonic mucosa; assay: Acid-induced HCO3^− secretion (lumen pH recovery); design: species or system rat; settings: 10 μM, serosa
Description: as §1, §2

Question: Which “R568 effects on Cl^−-, SCFA- and cAMP-dependent HCO3^− secretion” value [1] does the source give for `COc1cccc([C@@H](C)NCCCc2ccccc2Cl)c1.Cl` [R568, 2-Chloro-N-[(1R)-1-(3-methoxyphenyl)ethyl]-benzenepropanamine hydrochloride] here?
Answer: The value was “abolished”.

Question: What about the “effect on forskolin-induced HCO3^− secretion” value [2] of the same compound?
Answer: Its value is “did not increase but rather decreased”.

Question: What about the “Cl^−-dependent HCO3^− secretion” value [3] of the same compound?
Answer: Its value is “stimulated”.

Question: What about the “SCFA-dependent HCO3^− secretion” value [3] of the same compound?
Answer: The value was “stimulated”.

Question: And the “cAMP-dependent HCO3^− secretion” value [3]?
Answer: Its value is “inhibited”.

Question: And the “Cl^−/HCO3^− exchange activity” value (Cl^−/HCO3^− exchange)?
Answer: The value was “stimulation”.

Question: And the “acid-induced HCO3^− secretion (pH recovery rate)” value [4]?
Answer: The value was “transient but significant stimulation”.
